According to patent US20140142094A1, “KINASE INHIBITORS” (ICAHN SCHOOL OF MEDICINE AT MOUNT SINAI, priority 2011, published 2014):

Tests used:
DU145 (prostate cancer) = assay: Cytotoxicity on DU145 cancer cell line; type: cell-based; conditions: Homo sapiens, DU-145; DU145 cells, 96 h treatment
Procedure: (§1) The effect of the compounds described herein on tumor cells was determined by the assay described by Latham et al., Oncogene 12:827-837 (1996). Tumor cells K562 (chronic myelogenous leukemia; leukemia cell line +ve for Bcr-Abl) or DU145 (prostate cancer) were plated in 12-well dishes at a cell density of 2.5×10^4 cells per well. The plated cells were treated 24h. later with a DMSO solution of a compound as described herein at multiple concentrations ranging from 0.01 μM to 100 μM. The plates were examined 96 h. later under an inverted microscope, Olympus CK-2 using a 10× objective, and compound activity was noted by physical observation. When necessary, the total number of viable cells was determined by trypsinizing the wells and counting the number of viable cells, as determined by trypan blue exclusion, using a hemacytometer.

ABL1 (E255K) = target: T1, ABL1 (E255K) (Homo sapiens, UniProt P00519, E255K); assay: Inhibition of ABL mutants; type: biochemical; conditions: 10 μM ATP; 5-dose IC50 mode
T1 construct: purchased Reaction Biology Corporation
Procedure: (§2) Kinase assays were performed at Reaction Biology Corporation. To a freshly prepared buffer solution was added the target kinase at a concentration of 20 μM. The contents were mixed gently, and then compound 1b dissolved in DMSO was added to the reaction mixture in the appropriate concentration. The mixture was incubated at room temperature for 30 min. prior to addition of ATP to initiate the reaction. Compound 1b was tested in a 5-dose IC50 mode with 10-fold serial dilutions starting at 10 μM. Staurosporine was used as a control compound in a 10-dose IC50 mode with 3-fold serial dilutions starting at 20 μM. Reaction was carried out at 10 μM ATP concentration.

ABL1 (H396P) = target: T2, ABL1 (H396P) (Homo sapiens, UniProt P00519, H396P); assay: Inhibition of ABL mutants; type: biochemical; conditions: 10 μM ATP; 5-dose IC50 mode
T2 construct: purchased Reaction Biology Corporation
Procedure: as §2

ABL1 (M351T) = target: T3, ABL1 (M351T) (Homo sapiens, UniProt P00519, M351T); assay: Inhibition of ABL mutants; type: biochemical; conditions: 10 μM ATP; 5-dose IC50 mode
T3 construct: purchased Reaction Biology Corporation
Procedure: as §2

ABL1 (T315I) = target: T4, ABL1 (T315I) (Homo sapiens, UniProt P00519, T315I); assay: Inhibition of ABL mutants; type: biochemical; conditions: 10 μM ATP; 5-dose IC50 mode
T4 construct: purchased Reaction Biology Corporation
Procedure: as §2

ABL1 (Q252H) = target: T5, ABL1 (Q252H) (Homo sapiens, UniProt P00519, Q252H); assay: Inhibition of ABL mutants; type: biochemical; conditions: 10 μM ATP; 5-dose IC50 mode
T5 construct: purchased Reaction Biology Corporation
Procedure: as §2

ABL1 (G250E) = target: T6, ABL1 (G250E) (Homo sapiens, UniProt P00519, G250E); assay: Inhibition of ABL mutants; type: biochemical; conditions: 10 μM ATP; 5-dose IC50 mode
T6 construct: purchased Reaction Biology Corporation
Procedure: as §2

ABL1 (Y253F) = target: T7, ABL1 (Y253F) (Homo sapiens, UniProt P00519, Y253F); assay: Inhibition of ABL mutants; type: biochemical; conditions: 10 μM ATP; 5-dose IC50 mode
T7 construct: purchased Reaction Biology Corporation
Procedure: as §2

ABL2/ARG = target: T8, ABL2/ARG (Homo sapiens, UniProt P42684); assay: Kinase inhibition assay (Reaction Biology); type: biochemical; conditions: 10 μM ATP; 5-dose IC50 mode
T8 construct: purchased Reaction Biology Corporation
Procedure: as §2

ABL1 = target: T9, ABL1 (Homo sapiens, UniProt P00519); assay: Kinase inhibition assay (Reaction Biology); type: biochemical; conditions: 10 μM ATP; 5-dose IC50 mode
T9 construct: purchased Reaction Biology Corporation
Procedure: as §2

FGR = target: T10, FGR (Homo sapiens, UniProt P09769); assay: Kinase inhibition assay (Reaction Biology); type: biochemical; conditions: 10 μM ATP; 5-dose IC50 mode
T10 construct: purchased Reaction Biology Corporation
Procedure: as §2

PI3K-α = target: T11, PI3K-α (Homo sapiens, UniProt P42336); assay: Kinase inhibition assay (Reaction Biology); type: biochemical; conditions: Table 2; 10 μM ATP; 5-dose IC50 mode
T11 construct: purchased Reaction Biology Corporation
Procedure: as §2

PI3K-δ = target: T12, PI3K-δ (Homo sapiens, UniProt O00329); assay: Kinase inhibition assay (Reaction Biology); type: biochemical; conditions: Table 2; 10 μM ATP; 5-dose IC50 mode
T12 construct: purchased Reaction Biology Corporation
Procedure: as §2

RPIK2 = target: T13, RPIK2 (Homo sapiens, UniProt O43353); assay: Kinase inhibition assay (Reaction Biology); type: biochemical; conditions: 10 μM ATP; 5-dose IC50 mode
T13 construct: purchased Reaction Biology Corporation
Procedure: as §2

[1] = system: K562 (chronic myelogenous leukemia; leukemia cell line +ve for Bcr-Abl); assay: Cytotoxicity on K562 cancer cell line; type: cell-based; conditions: Homo sapiens; K562 cells, 96 h treatment
Procedure: as §1

PIK3-γ = target: T14, PIK3-γ (Homo sapiens, UniProt P48736); assay: Inhibition of PI3K kinases; type: biochemical; conditions: Table 4; 10 μM ATP; 5-dose IC50 mode
T14 construct: purchased Reaction Biology Corporation
Procedure: as §2, with “were mixed gently and then” for “were mixed gently, and then”, “at 20 µM. Reaction was” for “at 20 μM. Reaction was”

PIK3-δ = target: T15, PIK3-δ (Homo sapiens, UniProt O00329); assay: Inhibition of PI3K kinases; type: biochemical; conditions: Table 4; 10 μM ATP; 5-dose IC50 mode
T15 construct: purchased Reaction Biology Corporation
Procedure: as §2, with “were mixed gently and then” for “were mixed gently, and then”, “at 20 µM. Reaction was” for “at 20 μM. Reaction was”

PIK3-β = target: T16, PIK3-β (Homo sapiens, UniProt P42338); assay: Inhibition of PI3K kinases; type: biochemical; conditions: Table 4; 10 μM ATP; 5-dose IC50 mode
T16 construct: purchased Reaction Biology Corporation
Procedure: as §2, with “were mixed gently and then” for “were mixed gently, and then”, “at 20 µM. Reaction was” for “at 20 μM. Reaction was”

PIK3-α = target: T17, PIK3-α (Homo sapiens, UniProt P42336); assay: Inhibition of PI3K kinases; type: biochemical; conditions: Table 4; 10 μM ATP; 5-dose IC50 mode
T17 construct: purchased Reaction Biology Corporation
Procedure: as §2, with “were mixed gently and then” for “were mixed gently, and then”, “at 20 µM. Reaction was” for “at 20 μM. Reaction was”

T11 sequence (P42336 whole entry): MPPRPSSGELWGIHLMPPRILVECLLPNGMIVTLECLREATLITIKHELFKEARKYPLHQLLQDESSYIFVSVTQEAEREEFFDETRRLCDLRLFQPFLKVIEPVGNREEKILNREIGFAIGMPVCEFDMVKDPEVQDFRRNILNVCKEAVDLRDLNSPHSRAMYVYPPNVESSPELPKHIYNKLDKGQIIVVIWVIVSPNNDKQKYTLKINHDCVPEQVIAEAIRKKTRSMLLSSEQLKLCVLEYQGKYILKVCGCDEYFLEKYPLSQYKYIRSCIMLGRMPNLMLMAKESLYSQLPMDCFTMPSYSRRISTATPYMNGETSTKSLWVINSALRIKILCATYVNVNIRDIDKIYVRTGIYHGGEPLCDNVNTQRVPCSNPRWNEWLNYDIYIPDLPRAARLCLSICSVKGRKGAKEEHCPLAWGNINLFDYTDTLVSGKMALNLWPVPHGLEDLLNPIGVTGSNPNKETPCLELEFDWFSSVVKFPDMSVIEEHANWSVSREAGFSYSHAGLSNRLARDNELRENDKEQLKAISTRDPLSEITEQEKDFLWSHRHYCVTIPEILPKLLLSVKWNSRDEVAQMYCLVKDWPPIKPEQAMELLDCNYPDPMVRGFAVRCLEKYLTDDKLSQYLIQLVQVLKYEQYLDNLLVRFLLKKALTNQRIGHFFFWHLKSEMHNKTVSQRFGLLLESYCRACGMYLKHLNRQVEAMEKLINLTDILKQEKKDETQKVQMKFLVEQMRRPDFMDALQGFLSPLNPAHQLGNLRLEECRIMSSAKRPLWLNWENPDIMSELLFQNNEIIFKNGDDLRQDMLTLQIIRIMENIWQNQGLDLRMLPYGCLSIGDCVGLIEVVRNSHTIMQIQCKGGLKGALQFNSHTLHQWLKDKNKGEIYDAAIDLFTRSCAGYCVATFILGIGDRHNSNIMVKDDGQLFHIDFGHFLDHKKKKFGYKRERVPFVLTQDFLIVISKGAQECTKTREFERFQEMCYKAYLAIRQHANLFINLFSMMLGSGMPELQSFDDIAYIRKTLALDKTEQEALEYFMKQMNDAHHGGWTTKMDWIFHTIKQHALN
T11 sequence (P27986 whole entry partner): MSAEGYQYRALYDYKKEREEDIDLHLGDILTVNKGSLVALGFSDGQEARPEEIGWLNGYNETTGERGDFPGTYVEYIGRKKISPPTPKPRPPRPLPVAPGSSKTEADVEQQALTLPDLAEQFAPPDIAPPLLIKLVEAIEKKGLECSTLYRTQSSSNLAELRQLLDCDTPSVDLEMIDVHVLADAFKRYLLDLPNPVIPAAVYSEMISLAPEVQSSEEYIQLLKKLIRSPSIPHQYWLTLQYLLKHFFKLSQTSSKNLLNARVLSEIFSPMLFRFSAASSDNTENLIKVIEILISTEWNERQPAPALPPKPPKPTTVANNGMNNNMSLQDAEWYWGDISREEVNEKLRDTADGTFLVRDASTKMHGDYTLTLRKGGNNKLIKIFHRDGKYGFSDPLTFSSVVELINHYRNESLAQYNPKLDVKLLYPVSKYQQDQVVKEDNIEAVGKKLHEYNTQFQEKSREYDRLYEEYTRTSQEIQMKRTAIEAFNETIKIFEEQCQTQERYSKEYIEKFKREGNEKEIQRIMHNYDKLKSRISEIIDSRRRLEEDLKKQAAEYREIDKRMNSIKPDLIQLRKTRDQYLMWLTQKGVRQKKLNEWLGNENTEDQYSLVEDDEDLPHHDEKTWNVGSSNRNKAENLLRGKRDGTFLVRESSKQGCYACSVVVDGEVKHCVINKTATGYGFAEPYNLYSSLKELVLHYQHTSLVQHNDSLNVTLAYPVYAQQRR
T17 sequence (P42336 whole entry): as the sequence (P42336 whole entry) above
T17 sequence (P27986 whole entry partner): as the sequence (P27986 whole entry partner) above
T13 sequence (O43353 whole entry): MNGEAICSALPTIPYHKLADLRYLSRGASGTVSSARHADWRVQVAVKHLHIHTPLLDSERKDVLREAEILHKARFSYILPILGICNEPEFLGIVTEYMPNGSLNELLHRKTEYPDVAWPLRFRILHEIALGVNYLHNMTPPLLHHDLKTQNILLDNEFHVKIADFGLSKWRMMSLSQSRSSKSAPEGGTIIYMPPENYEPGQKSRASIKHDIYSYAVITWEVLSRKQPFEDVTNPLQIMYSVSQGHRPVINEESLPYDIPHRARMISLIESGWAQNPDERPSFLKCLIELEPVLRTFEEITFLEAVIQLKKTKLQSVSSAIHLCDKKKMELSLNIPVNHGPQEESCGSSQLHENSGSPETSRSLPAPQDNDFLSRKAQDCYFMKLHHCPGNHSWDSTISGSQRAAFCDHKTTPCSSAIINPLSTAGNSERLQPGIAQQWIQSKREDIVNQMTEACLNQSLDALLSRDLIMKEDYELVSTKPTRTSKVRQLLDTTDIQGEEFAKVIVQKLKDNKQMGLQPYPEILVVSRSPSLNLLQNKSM
T16 sequence (P42338 whole entry): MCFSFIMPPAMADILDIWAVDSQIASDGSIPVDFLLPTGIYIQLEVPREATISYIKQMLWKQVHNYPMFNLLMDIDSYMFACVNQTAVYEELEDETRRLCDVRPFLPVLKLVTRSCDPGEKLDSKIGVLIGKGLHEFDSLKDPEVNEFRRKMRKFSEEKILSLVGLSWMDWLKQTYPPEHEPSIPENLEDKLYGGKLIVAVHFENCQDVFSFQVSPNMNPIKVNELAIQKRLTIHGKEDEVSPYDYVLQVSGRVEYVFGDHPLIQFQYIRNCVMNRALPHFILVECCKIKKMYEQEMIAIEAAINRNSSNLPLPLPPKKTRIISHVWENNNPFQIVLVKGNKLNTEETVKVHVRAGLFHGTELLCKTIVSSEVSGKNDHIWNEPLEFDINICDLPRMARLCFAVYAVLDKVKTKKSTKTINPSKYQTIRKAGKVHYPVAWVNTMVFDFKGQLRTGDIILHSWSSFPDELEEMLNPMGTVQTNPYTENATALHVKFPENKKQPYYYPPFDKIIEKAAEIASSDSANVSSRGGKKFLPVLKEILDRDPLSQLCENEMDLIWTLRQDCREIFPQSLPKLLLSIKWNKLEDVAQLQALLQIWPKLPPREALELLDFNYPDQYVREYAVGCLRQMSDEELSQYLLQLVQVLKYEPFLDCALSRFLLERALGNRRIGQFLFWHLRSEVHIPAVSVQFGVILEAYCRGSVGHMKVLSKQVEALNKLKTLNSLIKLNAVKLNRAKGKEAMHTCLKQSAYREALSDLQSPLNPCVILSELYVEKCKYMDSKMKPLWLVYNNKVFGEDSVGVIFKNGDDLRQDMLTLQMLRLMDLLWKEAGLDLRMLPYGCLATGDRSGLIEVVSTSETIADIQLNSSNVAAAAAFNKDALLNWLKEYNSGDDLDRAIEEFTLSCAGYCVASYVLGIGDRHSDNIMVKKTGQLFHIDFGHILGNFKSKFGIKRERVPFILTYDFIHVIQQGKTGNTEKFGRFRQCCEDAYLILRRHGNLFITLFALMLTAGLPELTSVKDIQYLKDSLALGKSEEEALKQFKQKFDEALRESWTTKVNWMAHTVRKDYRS
T16 sequence (P27986 whole entry partner): as the sequence (P27986 whole entry partner) above
T10 sequence (P09769 whole entry): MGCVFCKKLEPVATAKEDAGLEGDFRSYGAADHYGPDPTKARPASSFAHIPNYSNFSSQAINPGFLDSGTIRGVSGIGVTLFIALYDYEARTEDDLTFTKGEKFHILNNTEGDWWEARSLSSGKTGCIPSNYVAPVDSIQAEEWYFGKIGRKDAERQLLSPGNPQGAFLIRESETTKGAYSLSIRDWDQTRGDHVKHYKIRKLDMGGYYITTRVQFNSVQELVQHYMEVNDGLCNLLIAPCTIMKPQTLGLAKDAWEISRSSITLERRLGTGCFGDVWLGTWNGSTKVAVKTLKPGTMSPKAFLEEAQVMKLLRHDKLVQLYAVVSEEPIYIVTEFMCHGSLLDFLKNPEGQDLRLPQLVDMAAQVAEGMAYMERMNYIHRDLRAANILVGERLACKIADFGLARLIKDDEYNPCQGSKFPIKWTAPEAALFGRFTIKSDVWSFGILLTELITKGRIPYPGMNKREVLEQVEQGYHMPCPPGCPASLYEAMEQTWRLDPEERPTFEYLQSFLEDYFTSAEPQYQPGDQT

CN1CCN(c2ccc(Nc3ncc4c(n3)S/C(=C/c3ccc([N+](=O)[O-])cc3)C(=O)N4)cc2)CC1 [Compound 1b, (E)-2-(4-(4-Methylpiperazin-1-yl)phenylamino)-7-(4-nitrobenzylidene)-5H-pyrimido[4,5-b][1,4]thiazin-6(7H)-one]
IC50 (DU145 (prostate cancer)): < 1000 nM
IC50 (ABL1 (E255K)): 106 nM
IC50 (ABL1 (H396P)): 9 nM
IC50 (ABL1 (M351T)): 12 nM
IC50 (ABL1 (T315I)): 2730 nM
IC50 (ABL1 (Q252H)): 10 nM
IC50 (ABL1 (G250E)): 35 nM
IC50 (ABL1 (Y253F)): 60 nM
IC50 (ABL2/ARG): 30 nM
IC50 (ABL1): 19 nM
IC50 (FGR): 124 nM
IC50 (PI3K-α): 13 nM
IC50 (PI3K-δ): 20 nM
IC50 (RPIK2): 68 nM
IC50 [1]: < 1000 nM
IC50 (PIK3-γ): 22 nM
IC50 (PIK3-δ): 7 nM
IC50 (PIK3-β): 10 nM
IC50 (PIK3-α): 4 nM
